From patent publication US5164405A, “Nicardipine pharmaceutical composition for parenteral administration” (Syntex (U.S.A.) Inc., priority 1990, dated 1992)

Columns and labels:
physchem = format: physicochemical; conditions: for solubility thermodynamic: Equilibrium solubility
Text: The solubilities were equilibrium solubilities measured by a saturated solution method well known to those skilled in the art.

[1] = Dissolution, free base precipitation and tonicity on preparation of formulations; format: physicochemical; conditions: for Dissolution: added to citrate buffer solution; for Dissolution / Dissolution in water for injection / free base precipitation: monohydrochloride; for Dissolution in water for injection / free base precipitation: unbuffered water for injection, before pH adjustment
Protocol: With regard to the process for producing the stable pharmaceutical composition according to the inventions, preferably the citric acid and sodium hydroxide is first dissolved in some water for injection to form a solution of the desired pH. The nicardipine HCI and sorbitol are then added and dissolved in this solution of controlled pH and the resulting solution made to volume with the remainder of the water for injection.
A. In an initial attempt to formulate a pharmaceutical composition of nicardipine hydrochloride suitable for parenteral administration employing conventional techniques well known in the pertinent art, 1 mg of nicardipine hydrochloride was dissolved in water for injection. To this was admixed 6 mg of sodium chloride and a sufficient amount of hydrochloric acid to give a solution having a pH of 3 5. This solution was then made up to volume with water for injection, i.e., to 1 ml. The resulting composition was packaged in an ampule and sterilized by autoclaving.
B. Then, in a following attempt to formulate a pharmaceutical composition of nicardipine hydrochloride for parenteral administration employing conventional techniques well known in the pertinent art, 1 mg of nicardipine hydrochloride together with about 50 mg of the non-chloride, saccharide compound, sorbitol, were dissolved in a portion of water for injection. Sufficient amounts of concentrated hydrochloric acid was added to produce a solution of pH 3.5 and the composition was made to volume with the remainder of the water for injection, i.e. to 1 ml. The resulting composition was packaged in an ampule and sterilized by autoclaving.
The solution was made up to volume, i.e 1 ml. with the remainder of the water for injection. This solution was then filled into ampules and terminally sterilized by autoclaving.

Aqueous solubility as a function of pH (physchem): reduction in the aqueous solubility | solubility thermodynamic (physchem; water, pH 3.05, water): 2940 µg/mL | solubility thermodynamic (physchem; water, pH 3.45, water): 3280 µg/mL | Equilibrium solubility (physchem; water, pH 4.06): 5160 µg/mL | solubility thermodynamic (physchem; water, pH 4.06, water): 2950 µg/mL | solubility thermodynamic (physchem; water, pH 4.24, water): 2350 µg/mL | solubility thermodynamic (physchem; water, pH 4.68, water): 850 µg/mL | solubility thermodynamic (physchem; water, pH 5.05, water): 360 µg/mL | solubility thermodynamic (physchem; water, pH 6.21, water): 25 µg/mL | Dissolution ([1]; listed as Nicardipine HCl): very easy | Dissolution [1]: rapid and complete dissolution | Temperature that can be required for dissolution ([1]; dissolved in water, before buffer addition or unbuffered): 60-70 °C | Dissolution in water for injection / free base precipitation ([1]; listed as Nicardipine HCl): difficult
SMILES: COC(=O)C1=C(C)NC(C)=C(C(=O)OCCN(C)Cc2ccccc2)C1c1cccc([N+](=O)[O-])c1.Cl (stereo not shown) [Nicardipine Hydrochloride, 2-(Benzylmethylamino)ethyl methyl 1,4-dihydro-2,6-dimethyl-4-(m-nitrophenyl)-3,5-pyridine-dicarboxylate monohydrochloride]
Precipitation of free base ([1]; dissolved in buffer solution): No precipitation of free base was observed | Dissolution of required dose strength (1 mg per ml) ([1]; sodium chloride increased to give an isotonic solution): failure to dissolve sufficient nicardipine hydrochloride | Dissolution in water for injection / free base precipitation [1]: formation of nicardipine free base which precipitates from solution
